In patent publication US6177431A, “Tetrahydropyrimidine derivatives” (priority 1996, dated 2001):
Read-outs that look alike come from different tables or passages of the source.

Legend:
[1] = tested on: caterpillars of the owlet moth (Spodoptera frugiperda); assay: Spodoptera frugiperda test; assay type: in vivo; conditions: for destruction: after 3 days, active compound concentration 0.001%, cabbage leaves dipped; for mortality at 0.001 %: Spodoptera frugiperda, in Brassica oleracea, 72 h, read-out: destruction
[2] = tested on: mustard beetle larvae (Phaedon cochleariae); assay: Phaedon larvae test; conditions: for mortality at 0.001 %: Phaedon cochleariae, in Brassica oleracea, 72 h, read-out: destruction
[3] = tested on: larvae of the green rice leaf hopper (Nephotettix cincticeps); assay: Nephotettix test; assay type: in vivo; conditions: 144 h, read-out: destruction
Excerpt: (§1) Solvent: 7 parts by weight of dimethylformamide

[4] = tested on: green peach aphids (Myzus persicae); assay: Myzus test; assay type: in vivo; conditions: for mortality at 0.001 %: Myzus persicae, 24 h, read-out: destruction
Excerpt: as §1

[5] = tested on: caterpillars of the diamondback moth (Plutella maculipennis); assay: Plutella test; assay type: in vivo; conditions: for mortality at 0.01 %: Plutella, in Brassica oleracea, 72 h, read-out: destruction
Excerpt: as §1

[6] = Lg. P, octanol/water partition coefficient determined by reversed phase HPLC; assay type: physicochemical
Excerpt: *^) Lg. P = Logarithm of the partition coefficient P of the substance
between the solvents octanol and water, determined experimentally by […]

[7] = after 1 day, active compound concentration 0.001%, infested broad bean seedlings dipped
[8] = octanol/water, determined experimentally by reversed phase HPLC, read-out: Lg. P (logarithm of the partition coefficient P)

Structure (SMILES)	mortality at 0.001 % [1]	mortality at 0.001 % [2]	mortality at 0.0001 % [3]	mortality at 0.01 % [5]	further results
CCC(C)(C)N1CC([N+](=O)[O-])=C2N(Cc3cnc(Cl)s3)CCN2C1 [(A), reference compound]					destruction [1]: no action; destruction ([2]; after 3 days, active compound concentration 0.001%, cabbage leaves dipped): no action
COC(CN1CC([N+](=O)[O-])=C2N(Cc3cnc(Cl)s3)CCN2C1)OC [(B), reference compound]	30%	30%			
CCCCCCN1CC([N+](=O)[O-])=C2N(Cc3cnc(Cl)s3)CCN2C1 [(C), reference compound]	30%	40%			
CN1CC([N+](=O)[O-])=C2N(Cc3cnc(Cl)s3)CCN2C1 [(D), reference compound]					destruction [1]: no action
CCOC(=O)CCN1CC([N+](=O)[O-])=C2N(Cc3ccc(Cl)nc3)CCN2C1 [(E), reference compound]		20%	20%		mortality at 0.001 % ([4]; in Vicia faba): 10%; destruction ([5]; after 3 days, active compound concentration 0.01%, cabbage leaves dipped): no action
O=[N+]([O-])C1=C2N(Cc3ccc(Cl)nc3)CCN2CN(Cc2ccc(Cl)cc2)C1 [(F), reference compound]					destruction [1]: no action; destruction [4, 7]: no action
CCOC(=O)CN1CC([N+](=O)[O-])=C2N(Cc3ccc(Cl)nc3)CCN2C1 [(G), reference compound]	30%				
COC(=O)CN1CC([N+](=O)[O-])=C2N(Cc3ccc(Cl)nc3)CCN2C1 [Example 1, 6,7-dihydro-1-(2-chloropyridin-5-yl-methyl)-6-methoxycarbonyl-methyl-8-nitro-(5H)-imidazolidino-[2,3-f]-pyrimidine]		100%		100%	mortality at 0.001 % ([4]; in Vicia faba): 99%
O=C(CN1CC([N+](=O)[O-])=C2N(Cc3ccc(Cl)nc3)CCN2C1)Nc1ccccc1 [Example 3]		100%			
O=C(O)CCCCCN1CC([N+](=O)[O-])=C2N(Cc3ccc(Cl)nc3)CCN2C1 [Example 4]		100%			mortality at 0.001 % ([4]; in Vicia faba): 80%; chromatographic logP ([6]; reversed phase hplc): 1.07
CCOC(=O)CCCN1CC([N+](=O)[O-])=C2N(Cc3ccc(Cl)nc3)CCN2C1 [Example 5]					chromatographic logP ([6]; reversed phase hplc): 0.94
COC(=O)CN1CC([N+](=O)[O-])=C2N(Cc3cnc(Cl)s3)CCN2C1 [Example 6]			100%	100%	mortality at 0.001 % ([4]; in Vicia faba): 90%
O=C(CN1CC([N+](=O)[O-])=C2N(Cc3ccc(Cl)nc3)CCN2C1)OCc1ccc(Cl)nc1 [Example 7]		100%	100%		
CC(C)OC(=O)CN1CC([N+](=O)[O-])=C2N(Cc3ccc(Cl)nc3)CCN2C1 [Example 9]	100%	100%	100%	100%	
Cc1ccc(COC(=O)CN2CC([N+](=O)[O-])=C3N(Cc4ccc(Cl)nc4)CCN3C2)cc1 [Example 10]	100%	100%	100%	100%	
CCCCCCCCOC(=O)CN1CC([N+](=O)[O-])=C2N(Cc3ccc(Cl)nc3)CCN2C1 [Example 11]	100%	100%		100%	
O=C(CN1CC([N+](=O)[O-])=C2N(Cc3ccc(Cl)nc3)CCN2C1)OCc1ccc(Cl)c(Cl)c1 [Example 12]	100%	100%		100%	
O=C(CN1CC([N+](=O)[O-])=C2N(Cc3ccc(Cl)nc3)CCN2C1)OCc1c(Cl)cccc1Cl [Example 13]				100%	
O=C(CN1CC([N+](=O)[O-])=C2N(Cc3ccc(Cl)nc3)CCN2C1)OCc1ccc(Cl)cc1Cl [Example 14]	100%	100%	100%	100%	
COC(=O)CCCN1CC([N+](=O)[O-])=C2N(Cc3ccc(Cl)nc3)CCN2C1 [Example 15]	100%		100%	100%	mortality at 0.001 % ([4]; in Vicia faba): 98%; chromatographic logP ([6]; reversed phase hplc): 1.12
COC(=O)CCCN1CC([N+](=O)[O-])=C2N(Cc3cnc(Cl)s3)CCN2C1 [Example 16]			100%		mortality at 0.001 % [4, 7]: 90%; chromatographic logP [6, 8]: 1.13
CCOC(=O)CCCN1CC([N+](=O)[O-])=C2N(Cc3cnc(Cl)s3)CCN2C1 [Example 17]			100%	100%	chromatographic logP [6, 8]: 1.35
COC(=O)CCCCN1CC([N+](=O)[O-])=C2N(Cc3ccc(Cl)nc3)CCN2C1 [Example 19]	100%	100%		100%	mortality at 0.001 % ([4]; in Vicia faba): 95%
COC(=O)CCCCCCCN1CC([N+](=O)[O-])=C2N(Cc3cnc(Cl)s3)CCN2C1 [Example 20]	100%	100%			mortality at 0.001 % [4, 7]: 100%
COC(=O)CCCCCCCN1CC([N+](=O)[O-])=C2N(Cc3ccc(Cl)nc3)CCN2C1 [Example 21]				100%	chromatographic logP [6, 8]: 1.73
CC(C)OC(=O)CCN1CC([N+](=O)[O-])=C2N(Cc3ccc(Cl)nc3)CCN2C1 [Example 23]		100%			chromatographic logP ([6]; reversed phase hplc): 1.51
CCOC(=O)C(Cc1ccccc1)N1CC([N+](=O)[O-])=C2N(Cc3ccc(Cl)nc3)CCN2C1 (stereo not shown) [Example 27]					chromatographic logP [6, 8]: 1.99
COC(=O)C(C(C)C)N1CC([N+](=O)[O-])=C2N(Cc3ccc(Cl)nc3)CCN2C1 (stereo not shown) [Example 28]					chromatographic logP ([6]; reversed phase hplc): 1.55
